Paper PMC8347134, “Preparation of Antiproliferative Terpene-Alkaloid Hybrids by Free Radical-Mediated Modification of ent-Kauranic Derivatives” (Molecules, 2021)
Where two headings read alike, the source gives them in different places.

Tests used:
[1] = tested on: NCI-H460; set-up: method as in earlier work; settings: reference drugs; cited from earlier work
[2] = tested on: hTERT RPE-1; experiment: Parallel cytotoxicity assay on non-cancerous retina cells; type: cell-based
Procedure: (§1) A parallel cytotoxicity assay was performed on non-cancerous retina cells (hTERT RPE-1) in order to estimate the selectivity of the investigated compounds towards tumor cells. The inhibition of cell proliferation was calculated as IC50 by interpolation based on the semi-log dose response.
(§2) All cell lines were cultured as recommended by the suppliers. Culture media were purchased from Gibco Life Technologies, USA, and supplemented with 10% fetal bovine serum (HyClone, GE Healthcare Life Sciences, Logan, UT, USA). […] All stock solutions were prepared in DMSO.
(§3) After overnight incubation, cells were treated with the test compounds at seven different concentrations ranging from 100 to 6.4 × 10^−3 µM. […] The plates were incubated at 37 °C and monitored for 72 h in an IncuCyte® device (Essen BioScience Inc., Ann Arbor, MI, USA) for real-time imaging. Images were taken every 3 h, with one field imaged per well under 10× magnification. Cell growth was then quantified based on the percent cellular confluence as analysed by the IncuCyte® image analysis software and used to calculate IC50 values by linear interpolation. All tests have been performed in duplicate and the average values have been calculated.

[3] = tested on: Capan-1 (pancreatic adenocarcinoma); experiment: Cell proliferation assay (IncuCyte); type: cell-based; settings: for IC50: Homo sapiens, CAPAN-1, 72 h; for SI Capan-1: ratio IC50 hTERT RPE-1 / IC50 Capan-1
Procedure: as §1, §2, §3

[4] = tested on: HL-60 (acute myeloid leukemia); experiment: Cell proliferation assay (IncuCyte); type: cell-based; settings: for IC50: Homo sapiens, HL-60, 72 h; for SI HL-60: ratio IC50 hTERT RPE-1 / IC50 HL-60
Procedure: as §1, §2, §3

[5] = tested on: K-562 (chronic myeloid leukemia); experiment: Cell proliferation assay (IncuCyte); type: cell-based; settings: for IC50: Homo sapiens, K562, 72 h; for SI K-562: ratio IC50 hTERT RPE-1 / IC50 K-562
Procedure: as §1, §2, §3

[6] = tested on: HCT-116 (colorectal carcinoma); experiment: Cell proliferation assay (IncuCyte); type: cell-based; settings: for IC50: Homo sapiens, HCT-116, 72 h; for SI HCT-116: ratio IC50 hTERT RPE-1 / IC50 HCT-116
Procedure: as §1, §2, §3

[7] = tested on: DND-41 (acute lymphoblastic leukemia); experiment: Cell proliferation assay (IncuCyte); type: cell-based; settings: for IC50: DND41, 72 h; for SI DND-41: ratio IC50 hTERT RPE-1 / IC50 DND-41
Procedure: as §1, §2, §3

[8] = tested on: Z-138 (non-Hodgkin lymphoma); experiment: Cell proliferation assay (IncuCyte); type: cell-based; settings: for IC50: Homo sapiens, Z-138, 72 h; for SI Z-138: ratio IC50 hTERT RPE-1 / IC50 Z-138
Procedure: as §1, §2, §3

[9] = tested on: NCI-H460 (lung carcinoma); experiment: Cell proliferation assay (IncuCyte); type: cell-based; settings: for IC50: Homo sapiens, NCI-H460, 72 h; for SI NCI-H460: ratio IC50 hTERT RPE-1 / IC50 NCI-H460
Procedure: as §1, §2, §3

[10] = tested on: seven different tumor cell lines; experiment: Proliferation assays, best value over the seven tumor cell lines; type: cell-based; settings: for SImax: highest selectivity index over the tumor cell lines (Figure 4); for IC50 for retina (hTERT RPE-1) cells fold higher than for cancerous cells: highest selectivity indices
Procedure: as §1, §2, §3

[11] = hTERT-RPE1, 72 h, duplicate, mean ± deviation
[12] = lowest IC50 over the tumor cell lines (Figure 4), read-out: IC50 min

Row | SMILES | IC50 ([3]; duplicate, mean ± deviation) | IC50 ([4]; duplicate, mean ± deviation) | IC50 ([5]; duplicate, mean ± deviation) | IC50 ([6]; duplicate, mean ± deviation) | IC50 ([7]; duplicate, mean ± deviation) | IC50 ([8]; duplicate, mean ± deviation) | IC50 ([9]; duplicate, mean ± deviation) | IC50 for retina (hTERT RPE-1) cells fold higher than for cancerous cells [10] | IC50 [10, 12] | IC50 [2, 11] | SI Z-138 [8] | SI NCI-H460 [9] | SI Capan-1 [3] | SI HCT-116 [6] | SI DND-41 [7] | SImax [10] | also measured
1 | N.N.[Cl][Pt][Cl] [Cisplatin] |  |  |  |  |  |  |  |  |  |  |  |  |  |  |  |  | IC50 [1]: 5.33 µM
2 | CCOC(=O)CCC1=C[C@@]23CC[C@H]4[C@@](C)(CCC[C@@]4(C)C(=O)OC)[C@@H]2CC[C@@H]1C3 [Compound 7] | 37.1 ± 3.9 µM | 19.6 ± 7.7 µM | 24.7 ± 11.8 µM | 30.7 ± 16.4 µM | 36.5 ± 0.7 µM | 27.6 ± 15.5 µM | 12 ± 1.5 µM |  |  | 29.2 ± 1.2 µM | 1.1 | 2.4 |  |  |  |  | SI HL-60 [4]: 1.5; SI K-562 [5]: 1.2
3 | COC(=O)C1(C)CCCC2(C)C3CCC4CC3(C=C4CCC#N)CCC12 (stereo not shown) [Compound 16] | 18.1 ± 3.4 µM | 33.6 ± 2.6 µM | 58.4 ± 2.5 µM | 19 ± 5.7 µM | 7.8 ± 1 µM | 22.1 ± 11.4 µM | 15.4 ± 6 µM |  | 7.8 ± 1 µM | 38.2 ± 5.1 µM | 1.7 | 2.5 | 2.1 | 2.0 | 4.9 | 4.9 | SI HL-60 [4]: 1.1
4 | COC(=O)[C@]1(C)CCC[C@@]2(C)[C@@H]3CC[C@@H]4C[C@@]3(CC[C@@H]21)[C@H]1OC(=O)CC=C41 [Compound 22] | 1.3 ± 0.6 µM | 3.7 ± 1.3 µM | 2.5 ± 0.1 µM | 0.5 ± 0.2 µM | 2.3 ± 0.3 µM | 2.4 ± 1.1 µM | 1.4 ± 0.3 µM |  |  | 1.4 ± 0.1 µM |  | 1 | 1.1 | 2.8 |  |  | IC50 ([10]; tumor cell lines, read-out: IC50 values): < 1 µM
5 | CC(=O)O[C@@]12CO[C@@H]1C[C@H](O)[C@@]1(C)C(=O)[C@H](O)C3=C(C)[C@@H](OC(=O)[C@H](O)[C@@H](NC(=O)OC(C)(C)C)c4ccccc4)C[C@@](O)([C@@H](OC(=O)c4ccccc4)[C@H]21)C3(C)C [DT, docetaxel, reference compound] |  |  |  |  |  |  |  |  |  |  |  |  |  |  |  |  | IC50 ([2]; hTERT-RPE1, positive controls, 72 h): 0.0187 ± 0.0048 µM; IC50 ([3]; positive controls): 0.0042 ± 0.0018 µM; IC50 ([4]; positive controls): 0.0043 ± 0.0016 µM; IC50 ([5]; positive controls): 0.0052 ± 0.0012 µM; IC50 ([6]; positive controls): 0.0022 ± 0.0008 µM; IC50 ([7]; positive controls): 0.0047 ± 0.0012 µM; IC50 ([8]; positive controls): 0.0037 ± 0.0007 µM; IC50 ([9]; positive controls): 0.0055 ± 0.0013 µM
6 | CN[C@@H]1C[C@H]2O[C@@](C)([C@@H]1OC)n1c3ccccc3c3c4c(c5c6ccccc6n2c5c31)C(=O)NC4 [SP, staurosporine, reference compound] |  |  |  |  |  |  |  |  |  |  |  |  |  |  |  |  | IC50 ([4]; positive controls): 0.0091 ± 0.0016 µM; IC50 ([5]; positive controls): 0.0279 ± 0.0032 µM; IC50 ([7]; positive controls): 0.0086 ± 0.0015 µM; IC50 ([9]; positive controls): 0.0022 ± 0.0008 µM

The next lines start with results.

Row | IC50 ([3]; duplicate, mean ± deviation) | IC50 ([4]; duplicate, mean ± deviation) | IC50 ([5]; duplicate, mean ± deviation) | IC50 ([6]; duplicate, mean ± deviation) | IC50 ([7]; duplicate, mean ± deviation) | IC50 ([8]; duplicate, mean ± deviation) | IC50 ([9]; duplicate, mean ± deviation) | IC50 for retina (hTERT RPE-1) cells fold higher than for cancerous cells [10] | IC50 [10, 12] | SMILES | IC50 [2, 11] | SI Z-138 [8] | SI NCI-H460 [9] | SI Capan-1 [3] | SI HCT-116 [6] | SI DND-41 [7] | SImax [10] | also measured
7 | 1.7 ± 0.5 µM | 3 ± 1.4 µM | 8.8 ± 2.2 µM | 1 ± 0.4 µM | 1.4 ± 0.3 µM | 0.5 ± 0.2 µM | 1.3 ± 0.1 µM | up to 43 fold | 0.5 ± 0.2 µM | CCOC(=O)CC[C@@]1(N=[N+]=[N-])C[C@@]23CC[C@H]4[C@@](C)(CCC[C@@]4(C)C(=O)OC)[C@@H]2CC[C@@H]1C3 [Compound 11] | 1.8 ± 0.4 µM | 3.6 | 1.4 | 1.1 | 1.8 | 1.3 | 3.6 | 
8 | 1.2 ± 0.7 µM | 38.3 ± 17.8 µM | 36.4 ± 11.5 µM | 0.8 ± 0.2 µM | 21.4 ± 10.1 µM | 52 ± 33.4 µM | 1.4 ± 0.1 µM | up to 43 fold | 0.8 ± 0.2 µM | COC(=O)C1(C)CCCC2(C)C3CCC4CC3(CCC12)CC41CCC(=O)N1 (stereo not shown) [Compound 12] | 7.6 ± 0.5 µM |  | 5.4 | 6.3 | 9.5 |  | 9.5 | 
9 | 11.5 ± 1 µM | 8.3 ± 1.3 µM | 3.2 ± 1 µM | 11.6 ± 0.5 µM | 6.1 ± 1.1 µM | 9.5 ± 0.9 µM | 1 ± 0.1 µM | up to 43 fold | 1 ± 0.1 µM | COC(=O)C1(C)CCCC2(C)C3CCC4CC3(CCC12)CC41CCCN1 (stereo not shown) [Compound 13] | 32.2 ± 2 µM | 3.4 | 32.2 | 2.8 | 2.8 | 5.3 | 32.2 | SI HL-60 [4]: 3.9; SI K-562 [5]: 10.1
10 | 44.5 ± 8.3 µM | 46.2 ± 9.1 µM | 41 µM | 5.8 ± 0.1 µM | 44.5 ± 4.8 µM | 22.7 µM | 31.1 ± 1.6 µM |  |  | COC(=O)[C@]1(C)CCC[C@@]2(C)[C@@H]3CC[C@@H]4C[C@@]3(CC[C@@H]21)C[C@@]4(CCC(=O)O)N=[N+]=[N-] [Compound 14] | 26.2 ± 0.9 µM | 1.2 |  |  | 4.5 |  |  | 
11 | 33.2 ± 7.6 µM | 49.3 ± 5 µM | 76.3 ± 1.4 µM | 18.8 ± 8 µM | 38.9 ± 4.1 µM | 25.2 ± 0.3 µM | 41.8 ± 5.3 µM |  |  | COC(=O)C1(C)CCCC2(C)C1CCC13CC(CCC21)C(CCC(=O)O)(N=[N+]=[N-])C3O (stereo not shown) [Compound 24] | 31.7 ± 3.1 µM | 1.3 |  |  | 1.7 |  |  | 
12 | 6.4 ± 1.5 µM | > 100 µM | > 100 µM | 34.4 ± 0.5 µM | 36.4 ± 9.8 µM | 52 ± 17.4 µM | 34 ± 2.9 µM |  | 6.4 ± 1.5 µM | CC1(C(=O)O)CCCC2(C)C1CCC13CC(CCC21)C(CCC#N)(N=[N+]=[N-])C3O (stereo not shown) [Compound 25] | 33.6 ± 4.5 µM |  |  | 5.3 |  |  | 5.3 | 
13 | 8.3 ± 1.1 µM | 41.1 ± 15.9 µM | 36.9 ± 0.2 µM | 9.9 ± 2.7 µM | 6.6 ± 1.3 µM | 21.6 ± 5.4 µM | 0.6 ± 0.2 µM | up to 43 fold | 0.6 ± 0.2 µM | COC(=O)CCC1(N=[N+]=[N-])C2CCC3C4(C)CCCC(C)(C(=O)OC)C4CCC3(C2)C1O (stereo not shown) [Compound 26] | 25.9 ± 0.3 µM | 1.2 | 43.2 | 3.1 | 2.6 | 3.9 | 43.2 | 
14 | 3.7 ± 1.7 µM | 38 ± 11.8 µM | 56.5 ± 2.8 µM | 4 ± 3.7 µM | 8.3 ± 2 µM | 39.8 ± 10.9 µM | 1.9 ± 0.2 µM | up to 43 fold | 1.9 ± 0.2 µM | COC(=O)C1(C)CCCC2(C)C1CCC13CC(CCC21)C1(CCC(=O)N1)C3O (stereo not shown) [Compound 27] | 27.7 ± 4.3 µM |  | 14.6 | 7.5 | 6.9 | 3.3 | 14.6 | 
